The source of these data is article PMC6913882 (ACS chemical biology, 2018).

Holding throughout (assay type): binding
For assay [1], the target named is T1, DNA methyltransferase-1 (mDNMT1) (Mus musculus, UniProt P13864, N1248A). Kind of assay: SPR. For orientation: In SPR one partner is held on a chip, and binding of the other changes the refractive index at the surface.
Assay [2] deals with T2, DNA methyltransferase-1 (mDNMT1) (Mus musculus, UniProt P13864). Kind of assay: SPR.
Assay [3] has as its target DNA methyltransferase-1 (mDNMT1) (Mus musculus, UniProt P13864, R1279D). Kind of assay: SPR.
In assay [4] the target is T1, DNA methyltransferase-1 (mDNMT1). Kind of assay: crystal structure at […] Å.
Assay [5] deals with T2, DNA methyltransferase-1 (mDNMT1). Kind of assay: SPR. The source holds these as a separate data set.

Like-named read-outs stand apart in the source and are kept apart here.

T1 sequence (P13864 731-1602 N1248A): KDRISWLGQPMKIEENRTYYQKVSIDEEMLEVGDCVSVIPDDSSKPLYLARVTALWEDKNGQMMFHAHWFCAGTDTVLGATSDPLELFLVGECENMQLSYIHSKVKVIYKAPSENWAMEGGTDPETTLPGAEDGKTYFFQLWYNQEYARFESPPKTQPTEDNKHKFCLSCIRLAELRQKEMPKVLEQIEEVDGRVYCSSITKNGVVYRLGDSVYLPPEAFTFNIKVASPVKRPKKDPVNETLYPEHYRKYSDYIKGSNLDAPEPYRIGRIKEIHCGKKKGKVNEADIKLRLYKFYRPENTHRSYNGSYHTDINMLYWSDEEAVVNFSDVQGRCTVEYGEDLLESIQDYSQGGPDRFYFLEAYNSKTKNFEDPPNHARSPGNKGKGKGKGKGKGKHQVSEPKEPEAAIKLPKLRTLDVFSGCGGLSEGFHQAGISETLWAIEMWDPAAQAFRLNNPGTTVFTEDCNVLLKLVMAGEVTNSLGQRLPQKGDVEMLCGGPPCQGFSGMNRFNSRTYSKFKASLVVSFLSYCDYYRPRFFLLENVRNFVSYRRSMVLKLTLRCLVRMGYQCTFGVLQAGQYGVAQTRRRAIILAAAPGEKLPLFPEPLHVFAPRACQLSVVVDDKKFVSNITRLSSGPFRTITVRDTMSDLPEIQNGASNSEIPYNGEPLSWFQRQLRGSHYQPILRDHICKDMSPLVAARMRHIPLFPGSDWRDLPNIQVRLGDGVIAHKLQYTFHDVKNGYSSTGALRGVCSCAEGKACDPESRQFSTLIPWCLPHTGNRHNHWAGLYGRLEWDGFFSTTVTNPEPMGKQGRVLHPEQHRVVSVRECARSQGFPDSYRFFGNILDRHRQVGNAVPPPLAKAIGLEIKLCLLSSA
T2 sequence (P13864 731-1602): as the sequence (P13864 731-1602 N1248A) above, with A518N counted along it
Sequence of DNA methyltransferase-1 (mDNMT1) (Mus musculus, UniProt P13864, R1279D) (P13864 731-1602 R1279D): as the sequence (P13864 731-1602 N1248A) above, with A518N, R549D counted along it

As to `C[S+](CC[C@H](N)C(=O)[O-])C[C@H]1O[C@@H](n2cnc3c(N)ncnc32)[C@H](O)[C@@H]1O` (some centres unmarked) [AdoMet], the Kd (usually the equilibrium constant for the complex coming apart) in assay [1] is 6.61 µM; in assay [2] it was ~5.75 µM; in assay [3], 3.78 µM.
Take `Nc1ncnc2c1ncn2[C@@H]1O[C@H](CSCC[C@H](N)C(=O)O)[C@@H](O)[C@H]1O` [AdoHcy]: the Kd result in assay [4] was “The N1248A mutant was bound to AdoHcy (Figure S5A)”; in assay [5] it was ~0.47 µM.
